One series concerns macrophages de cobayes. The note with it: guinea pig macrophages; cited from earlier work.
A further series relates to HIV. The conditions noted are these: in vitro, 1000 µg/ml; cited from earlier work.
On the set-up of series [1]: species or system homme. The note with it: in vivo. The text has this: Des composés préférés pour l'utilisation selon l'invention sont le Murabutide (Nac-Mur-L-Ala-DGln OnC4H9) et le Muramétide (Nac-Mur-L-Ala-DGln OMe).
Another series concerns VIH (HTLV III Ba-L). Kind of series: HIV replication in primary human monocyte cultures (viral protein P24 in supernatants, day 7). The conditions noted are these: P24 at day 7. Type of series: cell-based. An excerpt:
L'exemple 2 démontre l'effet du Murabutide et du Muramétide sur le niveau de réplication du VIH dans des cultures primaires de monocytes humains prélevés sur des volontaires sains. Des cultures monocytaires ont été infectées au jour 0 par une source VIH (HTLV III Ba-L) qui présente un tropisme pour les monocytes. Certaines cultures furent traitées par différentes concentrations des composés soit 1 jour avant, soit le même jour, soit 1 jour après l'inoculation par le VIH. La réplication du virus a été évaluée au jour 7 par la mesure de la quantité de protéine virale P24 dans les surnageants comme décrite dans Blood, Vol.76, page 1490-1493, 1990.

For another series, the system named is macrophages. Description: Macrophage proliferation in cultured donor monocytes (3H-thymidine incorporation). Type of series: cell-based, humains. The conditions noted are these: for inhibition de la prolifération des macrophages stimulées par la combinaison IL-3/GM-CSF / inhibition de la prolifération des macrophages stimulées par l'IL-3: 1 µg/ml, compound added one day before 3H-thymidine, 5-day culture; for inhibition de la prolifération des macrophages stimulées par la combinaison IL-3/GM-CSF: rh IL-3 + rh GM-CSF stimulated; for inhibition de la prolifération des macrophages stimulées par l'IL-3: rh IL-3 stimulated; for inhibition de la prolifération spontanée: no stimulation. The text has this:
Pour cela, des monocytes prélevés chez un donneur sont mis en culture pendant 5 jours soit a) sans stimulation (afin d'évaluer leur niveau de prolifération spontanée) soit b) en présence d'interleukine 3 recombinante humaine (rh IL-3) soit c) en présence et de rh IL-3 et de rh GM-CSF "granulocyte-macrophage colony stimulating factor" recombinant humain. […] Les composés de l'invention sont ajoutés au milieu de culture un jour avant l'addition de thymidine tritiée (^3H-thymidine). Les cellules en voie de division incorporent cette thymidine. Les cellules (qui se sont différenciées en macrophages pendant la durée de la culture) sont recueillies et lavées, et on évalue le niveau de prolifération en mesurant dans un compteur beta, la quantité de ^3H incorporée suivant des méthodes classiques telles que décrites dans Blood, Vol. 76, pages 1490-1493, 1990.
For orientation: Incorporation of labelled thymidine or its analogues reports DNA synthesis.

For the compound `CC(=O)N[C@H]1C(O)O[C@H](CO)[C@@H](O)[C@@H]1O[C@H](C)C(=O)N[C@@H](C)C(=O)N[C@H](CCC(=O)O)C(N)=O` (stereo partly drawn) [MDP, N-acétyl-muramyl-L-alanyl-D- Isoglutamine], in the series on macrophages de cobayes, the “inhibition de la prolifération des macrophages” value was “inhiber la prolifération des macrophages de cobayes”. For the same compound, in the series with HIV, the “inhibition de la réplication de HIV” value was “inhiber partiellement la réplication de HIV”.

As for `CCCCOC(=O)[C@@H](CCC(N)=O)NC(=O)[C@H](C)NC(=O)[C@@H](C)O[C@H]1[C@H](O)[C@@H](CO)OC(O)[C@@H]1NC(C)=O` (stereo partly drawn) [Murabutide, Nac-Mur-L-Ala-DGln OnC4H9], in series [1], the effets secondaires entry is recorded as “dénuées d'effets secondaires” and the tolérance result is “très bonne tolérance”. In addition, the “inhibition de la réplication virale” value in the series on VIH (HTLV III Ba-L) (10 à 50 µg/ml, treatment on day -1, day 0 or day +1 relative to infection) is “inhibe complètement la réplication virale”. Also, in the series on macrophages, the “inhibition de la prolifération des macrophages stimulées par la combinaison IL-3/GM-CSF” value is reported as “inhiber la prolifération des macrophages” and the “inhibition de la prolifération des macrophages stimulées par l'IL-3” value is given as “inhiber la prolifération des macrophages”. For the same compound, the “inhibition de la prolifération spontanée” value in the series with macrophages (10 µg/ml) is “inhibition de la prolifération spontanée a été observé”.

For the compound `COC(=O)[C@@H](CCC(N)=O)NC(=O)[C@H](C)NC(=O)[C@@H](C)O[C@H]1[C@H](O)[C@@H](CO)OC(O)[C@@H]1NC(C)=O` (stereo partly drawn) [Muramétide, Nac-Mur-L-Ala-DGln OMe], in series [1], the effets secondaires result was “dénuées d'effets secondaires” and the tolérance entry was “très bonne tolérance”. Besides, the inhibition at 50 µg/mL in the series on VIH (HTLV III Ba-L) (Human immunodeficiency virus 1, BAL, Monocyte, 168 h, 50 µg/ml, whatever the time of treatment (day -1, 0 or +1), read-out: suppression de la réplication virale) turned out to be 100%. Moreover, the “suppression de la réplication virale” value with VIH (HTLV III Ba-L) (different concentrations, treatment day -1, 0 or +1) is reported as “suppression hautement significative de la réplication virale”. In the series on macrophages, the “inhibition de la prolifération des macrophages stimulées par la combinaison IL-3/GM-CSF” value is recorded as “inhiber la prolifération des macrophages” and the “inhibition de la prolifération des macrophages stimulées par l'IL-3” value is “inhiber la prolifération des macrophages”. For the same compound, in the series with macrophages (10 µg/ml), the “inhibition de la prolifération spontanée” value is “inhibition de la prolifération spontanée a été observé”. For the same compound, the “inhibition de la prolifération spontanée” value in the series on macrophages (50 µg/ml) is on record as “inhibition de la prolifération spontanée a été observé”.

(Values after EP0783319B1, “MURAMYL PEPTIDE COMPOSITIONS FOR INHIBITING HIV REPLICATION” (VACSYN S.A., priority 1994, dated 1996).)
